Data as given in patent US20230139883A1, “Peptides for Inducing Differentiation” (Shimadzu Corporation, priority 2020, published 2023).

Test system: FGFR1
Assay: Phage display selection against FGFR1 with Miseq analysis of the bound phages
Type: binding
Conditions: for 1 nM Num. of reads: phage library after panning Round 5, bound to 1 nM FGFR1; for 10 nM Num. of reads: phage library after panning Round 5, bound to 10 nM FGFR1; for 100 nM Num. of reads: phage library after panning Round 5, bound to 100 nM FGFR1; for 1 nM Ranking / 10 nM Ranking / 100 nM Ranking: rank by number of reads; for 1 nM Ranking: 1 nM FGFR1; for 10 nM Ranking: 10 nM FGFR1; for 100 nM Ranking: 100 nM FGFR1
Procedure: The collected phage library was mixed with 100 nM of FGFR3 solution and allowed to react overnight at 4° C. (Table 5: Panning Round 1). After the reaction, the binding phages were captured by magnetic beads modified with protein A, and washed three times with PBS-T, followed by eluting the bound phages with Gly-HCl (pH 2.0). After neutralizing with 2M Tris, the phages were infected to E. coli. After 4 hours of incubation, helper phages were added, and the E. coli were allowed to produce phages overnight. Next, phage solution was prepared from the culture supernatant. The prepared phage solution was mixed with FGFR3 solution and allowed to react overnight at 4° C. (Table 5: Panning Round 2). After the reaction, the bound phages were eluted. Phage solution prepared in the same way was mixed with FGFR3 solution and allowed to react at 4° C. for 1 hour (Table 5: Panning Round 3). After the reaction, the bound phages were eluted. This operation was repeated two more times, and after Panning Round 5, the bound phages were eluted. Note that as the rounds proceeded, the number of washes with PBS-T was increased. (Table 5). The titer of the Output phage in each round was also determined. The titer of phage was determined from the number of colonies obtained by incubating the E. coli TG1 strain contacted with the phage at 37° C. overnight. As shown in FIG. 3<Input phage (Round 5)>, the eluted phage library after panning was subjected to Human IgG Fc-immobilized plate, and negative selection was performed by collecting unbound phages. The phage library was then acted to FGFR1 prepared to concentrations of 100 nM, 10 nM, and 1 nM. Bound phages were then collected. The phagemid DNA of the collected phages was extracted, samples were prepared according to Illumina's protocol for Miseq, and a comprehensive analysis of the phagemid DNA was performed. Among the sequences obtained, 23 sequences with high incidence rates were selected (Table 6).

| Sequence | 1 nM Num. of reads | 10 nM Num. of reads | 100 nM Num. of reads | 1 nM Ranking | 10 nM Ranking | 100 nM Ranking |
| --- | --- | --- | --- | --- | --- | --- |
| CAAELAALDAELAALEGARLGKMSKVGKLIKLKEKLQNLKMAC [100n182] | 1428 | 1468 | 937 | 10 | 12 | 13 |
| CAAELAALEAELAALEGADAFTLGSAGKLMMLKEKLNHLKHAC [100n1348] | 349 | 473 | 346 | 27 | 30 | 30 |
| CAAELAALEAELAALEGAKKAEEGQKGKLYRLKNKLHYLKSAC [100n423] | 561 | 867 | 439 | 21 | 19 | 26 |
| CAAELAALEAELAALEGAVGDKRKSKGKLMMLKQKLELLKGAC [100n85] | 6769 | 9230 | 7482 | 2 | 2 | 2 |
| CAAELAALEAELAALEGAWVEQVNRRGKLDGLKMKLQRLKLAC [100n51] | 704 | 1000 | 649 | 19 | 16 | 16 |
| CAAELAALEAELAALEGDCLAGGCSFGKLLNLKQKLIRLKRAC [100n108] | 873 | 1155 | 464 | 13 | 14 | 22 |
| CAAELAALEAELAALEGFGGVVYSCEWQAVYLKYKLMRLKQAC [100n17] | 8443 | 10095 | 8500 | 1 | 1 | 1 |
| CAAELAALEAELAALEGGDEVPHVGGGKLKMLKYQLNNLKHAC [100n417] | 721 | 1010 | 762 | 18 | 15 | 14 |
| CAAELAALEAELAALEGGMATDHMNRGKLYRLKNKLHFLKIAC [100n781] | 352 | 262 | 228 | 26 | 48 | 40 |
| CAAELAALEAELAALEGGRFSGLQEKGKLYGLKNKLHYLKRAC [100n368] | 2077 | 2177 | 1695 | 8 | 9 | 11 |
| CAAELAALEAELAALEGINAVPMSGRGKLYSLKNKLHYLKNAC [100n12] | 273 | 267 | 258 | 30 | 46 | 34 |
| CAAELAALEAELAALEGLGGFFNLRTGKLDELKMKLQHLKQAC [100n84] | 795 | 854 | 563 | 15 | 20 | 19 |
| CAAELAALEAELAALEGMSNHTLGSIGKLMLLKDKLESLKEAC [100n1074] | 756 | 688 | 333 | 16 | 23 | 31 |
| CAAELAALEAELAALEGNTANDPTASGKLKYLKYKLSNLKHAC [100n606] | 872 | 894 | 609 | 14 | 18 | 18 |
| CAAELAALEAELAALEGPHPRHHHPHGKLKKLKRKLYKLKQAC [100n222] | 525 | 776 | 541 | 22 | 22 | 20 |
| CAAELAALEAELAALEGQTFMNPHRLGKLDKLKLKLVHLKRAC [100n8] | 4243 | 3717 | 1974 | 7 | 7 | 8 |
| CAAELAALEAELAALEGREPSGAMGSGKLKRLKYKLQNLKHAC [100n1793] | 493 | 493 | 395 | 23 | 29 | 29 |
| CAAELAALEAELAALEGSSMDHVAYTGKLRMLKFRLELLKGAC [100n1543] | 233 | 276 | 216 | 37 | 43 | 43 |
| CAAELAALEAELAALEGSVALGNKAGGKLRLLKLKLELLKDAC [100n1314] | 260 | 406 | 238 | 34 | 31 | 38 |
| CAAELAALEAELAALEGVGRLYHMASGKLDRLKGKLMVLKYAC [100n82] | 6561 | 7109 | 4896 | 3 | 4 | 5 |
| CAAELAALEAELAALEGVKELTLGTVGKLMSLKYKLWSLKQAC [100n83] | 4939 | 6581 | 3079 | 5 | 5 | 6 |
| CAAELAALEAELAALEGVPALVGQEGGKLVLLKWKLWRLKNAC [100n36] | 483 | 677 | 398 | 24 | 24 | 28 |
